Measurements: patent US8796415B2, “Inhibitors of guanine exchange factors and their use as anticancer drugs” (Centre National de la Recherche Scientifique, priority 2009, dated 2014)
Entries after “also recorded” stand apart in the source; their conditions may differ. Ends that are not written are not given here.

Experiments:
Type in all cases: biochemical
[1] = biological target: Tgat; assay: FRET fluorescence nucleotide exchange kinetics assay, Tgat/RhoA; conditions: for Ki / inhibition of Tgat GEF activity in kinetics fluorescence assay: RhoA 1 μM, Tgat 0.5 μM; for Ki: GST-TRIP peptides up to 100 μM, read-out: apparent inhibition constant (Kiapp) towards Tgat; for inhibition of Tgat GEF activity in kinetics fluorescence assay: increasing GST-TRIP peptide concentrations up to 100 μM; for efficiency at inhibiting the exchange activity of Tgat relative to TRIPα: from Kiapp values
Experimental: FIG. 4 represents the inhibition of Tgat GEF activity by TRIPT16M/L17S (SEQ ID NO: 41) and TRIPE32G (SEQ ID NO: 40) in vitro. FRET fluorescence exchange assays were performed using constant concentrations of RhoA (1 μM), equal amounts (0.5 μM) of Tgat (left panel) or Trio DH2 (right panel), and increasing concentrations of GST-TRIP peptides, up to 100 μM. Results were expressed as kobs values plotted as a function of the indicated TRIP inhibitor concentration.
FIG. 5 represents a histogram showing the apparent inhibition constants (Ki app) of the TRIP peptides for Tgat and Trio DH2, as indicated. The values and error bars are calculated from at least three independent experiments. Error bars represent standard deviation
Specific exchange rates of Tgat were measured with a fluorescence-based kinetics assay, using a 6His-RhoA construct (gift of Dr Derewenda, Charlottesville University, Virginia) purified as described (Oleksy et al., 2004). Exchange activities were followed by fluorescence resonance energy transfer (FRET) between the GTPase tryptophanes (λex=292 nm) and the methylanthranyloil group of mant-GTP (λem=440 nm) as described (Zeeh et al., 2006). All fluorescence measurements were performed with a CARY Eclipse fluorimeter (Varian). For each kobs determination, RhoA (1 μM) and Tgat (or Trio DH2) were preincubated 3 min at 25° C. in 700 μL reaction buffer (50 mM Tris pH 7.5, 50 mM NaCl, 2 mM MgCl2, 1 mM DTT). The exchange reaction was initiated by 10 μM mant-GTP and measured for 10 min until the plateau was reached. kobs were calculated by fitting the FRET fluorescence changes to a single exponential, using the Kaleidagraph software. Specific exchange activities were calculated by linear regression of kobs values determined for a range of GEF concentrations (0, 0.2, 0.3, 0.4, 0.5 and 1 μM).
Radioactive [3H]-GDP dissociation assays were performed as described (Schmidt et al., 2002). Briefly, 0.15 μM GST-Trio DH2-PH2 was preincubated for 15 min with 3 μM of GST-TRIP inhibitors. The reaction was started by addition of 0.4 μM [3H]-GDP-loaded RhoA and 1 mM GTP, and the reaction mix was filtered after 0 min and 15 min incubation at 25° C. Inhibition efficiency is expressed as the ratio between [3H]-GDP-bound RhoA at 15 and 0 min. Apparent inhibition constants (Kiapp) of TRIP-like peptides were determined from kobs values obtained at increasing peptide concentrations using the above fluorescence nucleotide exchange assay. Kiapp was calculated from the hyperbolic fit of kobs values as a function of the inhibitor concentration as described (Zeeh et al., 2006). TRIP-like peptide specificity was assayed using mant-GTP fluorescence kinetics (λex=360 nm, λem=460 nm) in a FLX800 Microplate Fluorescence Reader (BioTek Instruments). 0.5 μM Tgat, p63RhoGEF, Lbc, and p115RhoGEF, or 0.1 μM Dbl and Trio DH1-PH1 were preincubated 5 min at 25° C. in the presence of 20 μM GST, GST-TRIPE32G or TRIPT16M/L17S and 1 μM mant-GTP. The exchange reaction was initiated by addition of 1 μM RhoA or RhoG and monitored for 10 min.

[2] = biological target: T1, Trio DH1-PH1 (Homo sapiens, UniProt O75962); assay: mant-GTP fluorescence kinetics specificity assay, RhoG/Trio DH1-PH1; conditions: peptide 20 μM, 1 μM RhoG
T1 construct: Recombinant GST-Trio DH2-PH2, GST-Trio DH1-PH1, GST-Dbl (DH-PH domain); GST (N); made in house
Experimental: (§1) Figures represent the comparison of TRIPE32G and TRIPT16M/L17S inhibition efficiency on different GTPase/RhoGEF systems, using 1 μM GTPase and 0.5 μM GEF as follows:
(§2) In each assay, the peptides were used at a concentration of 20 μM, corresponding to a 40 fold molar excess of inhibitor versus GEF. All fluorescence kinetics assays were performed using 1 μM mant-GTP. Results are expressed as Relative Fluorescence Units (RFU) versus time. The reaction performed in the absence of GEF reflects the spontaneous exchange activity of the GTPase.
(§3) Radioactive [3H]-GDP dissociation assays were performed as described (Schmidt et al., 2002). […] Inhibition efficiency is expressed as the ratio between [3H]-GDP-bound RhoA at 15 and 0 min. Apparent inhibition constants (Kiapp) of TRIP-like peptides were determined from kobs values obtained at increasing peptide concentrations using the above fluorescence nucleotide exchange assay. Kiapp was calculated from the hyperbolic fit of kobs values as a function of the inhibitor concentration as described (Zeeh et al., 2006). TRIP-like peptide specificity was assayed using mant-GTP fluorescence kinetics (λex=360 nm, λem=460 nm) in a FLX800 Microplate Fluorescence Reader (BioTek Instruments). […] The exchange reaction was initiated by addition of 1 μM RhoA or RhoG and monitored for 10 min.

[3] = system: Tgat; assay: mant-GTP fluorescence kinetics specificity assay, RhoA/Tgat; conditions: peptide 20 μM, 0.5 μM Tgat, 1 μM RhoA, 1 μM mant-GTP
Experimental: as §1, §2, §3

[4] = biological target: T2, Lbc (Homo sapiens, UniProt Q12802); assay: mant-GTP fluorescence kinetics specificity assay, RhoA/Lbc; conditions: peptide 20 μM, 0.5 μM GEF, 1 μM RhoA
T2 construct: GST-Dbl (DH-PH domain), GST-Lbc (DH-PH), GST-p63RhoGEF (DH domain) and GST-RhoG were purified as described previously; GST (N); made in house
T2 sequence (Q12802 1994-2333): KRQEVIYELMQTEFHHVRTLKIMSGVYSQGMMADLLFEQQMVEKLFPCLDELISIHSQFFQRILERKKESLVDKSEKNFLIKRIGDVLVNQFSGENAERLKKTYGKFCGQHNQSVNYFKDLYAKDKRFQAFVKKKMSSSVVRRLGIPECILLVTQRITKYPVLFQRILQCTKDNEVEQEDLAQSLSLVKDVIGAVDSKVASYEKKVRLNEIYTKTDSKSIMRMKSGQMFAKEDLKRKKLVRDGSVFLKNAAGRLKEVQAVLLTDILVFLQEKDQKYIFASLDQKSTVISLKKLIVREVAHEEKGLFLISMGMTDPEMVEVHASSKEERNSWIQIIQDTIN
Experimental: as §1, §2, §3

| Substance | Ki [1] [µM] | inhibition of Tgat GEF activity in kinetics fluorescence assay [1] | inhibition of Tgat GEF activity in kinetics fluorescence assay ([1]; listed as GST-TRIPα) | effect on exchange activity of Trio DH1-PH1/RhoG [2] | inhibition of Tgat exchange activity on RhoA [3] | effect on exchange activity of Lbc/RhoA [4] | efficiency relative to TRIPα (Tgat GEF activity) [1] [fold] | efficiency at inhibiting the exchange activity of Tgat relative to TRIPα [1] |
| --- | --- | --- | --- | --- | --- | --- | --- | --- |
| AREGADGAICGYNLATLVMLGPSERVFCPLCEPCSSDIYELM [TRIPα] | 89 ± 33 | rather ineffective | no effect |  |  |  |  |  |
| GST-TRIPE32G (AREGADGAICGYNLATLVMLGPSERVFCPLCGPCSSDIYELM; cysteine pairing not given here; also: GST fusion) | 7.4 ± 5 | inhibited Tgat GEF activity in a dose-dependent manner; also recorded: low micromolar range |  | no effect | fully inhibited | no effect | 15 | about 15 times |
| GST-TRIPT16M/L17S | 5.1 ± 4 | inhibited Tgat GEF activity in a dose-dependent manner; also recorded: low micromolar range |  | no effect | fully inhibited | no effect | 15 | about 15 times |
